The source of these data is PubChem BioAssay (NCI).

Some test systems named below: DU-145 prostate; IGROV1 ovarian; M14 melanoma; NCI-H226 lung; OVCAR-3 ovarian; SK-MEL-2 melanoma; SK-MEL-28 melanoma; SK-OV-3 ovarian; SNB-19 CNS; SNB-75 CNS.
Holding throughout (experiment): DTP human tumour cell line panel, 48 h

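Interpolation was linear, between the two tested concentrations surrounding the appropriate level; five concentrations were tested over 48 hours in 96-well plates. TGI is the concentration that stops growth completely.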

As usually defined, the TGI is the concentration giving total growth inhibition. The low end stands for more potent growth arrest, the high end for less potent growth arrest. For `O=C1Sc2ccc(Br)cc2C(=O)Sc2ccccc21`, the TGI was 25.5 µM with DU-145 prostate; 31.6 µM in the experiment on IGROV1 ovarian; 26.6 µM in the experiment on M14 melanoma; 44.5 µM with NCI-H226 lung; 27.2 µM with OVCAR-3 ovarian; 36.6 µM in the experiment on SK-MEL-2 melanoma. Also, the total growth inhibition concentration (TGI) with SK-MEL-28 melanoma was 42.7 µM; in the experiment on SK-OV-3 ovarian it was above 62.9 µM; in the experiment on SNB-19 CNS it was 29.5 µM; in the experiment on SNB-75 CNS, 26.1 µM.
For `CCOC(=O)N1CCN(c2ccc3c(C)cc(C)nc3n2)CC1`, the TGI in the experiment with DU-145 prostate, with IGROV1 ovarian, in the experiment on M14 melanoma, with NCI-H226 lung, in the experiment with OVCAR-3 ovarian and in the experiment on SK-MEL-2 melanoma was above 100 µM in each case. Besides, the TGI with SK-MEL-28 melanoma, in the experiment on SK-OV-3 ovarian, in the experiment on SNB-19 CNS and in the experiment with SNB-75 CNS was above 100 µM in each case.
As for `CCOC(=O)/C(=C\c1ccc(N(C)C)cc1)S(=O)(=O)C(F)(F)C(F)(F)C(F)(F)C(F)(F)F`, the TGI in the experiment with DU-145 prostate, with IGROV1 ovarian, in the experiment on M14 melanoma, with NCI-H226 lung, in the experiment with OVCAR-3 ovarian and in the experiment on SK-MEL-2 melanoma was above 100 µM each time. Besides, the TGI in the experiment with SK-MEL-28 melanoma, in the experiment with SK-OV-3 ovarian, in the experiment with SNB-19 CNS and with SNB-75 CNS was above 100 µM in each case.
For the compound `C/C(=N/NC(=S)Nc1ccccc1Cl)c1cccc(/C(C)=N\NC(=S)Nc2ccccc2Cl)n1`, the TGI in the experiment with DU-145 prostate, in the experiment on IGROV1 ovarian, in the experiment on M14 melanoma, with NCI-H226 lung, in the experiment with OVCAR-3 ovarian and with SK-MEL-2 melanoma was above 100 µM each time. The TGI in the experiment with SK-MEL-28 melanoma, with SK-OV-3 ovarian, with SNB-19 CNS and in the experiment on SNB-75 CNS was above 100 µM each time.
As for `CN(C)c1ccc(/C=C2\N=C(NN)NC2=O)cc1`, the TGI with DU-145 prostate, in the experiment with IGROV1 ovarian, in the experiment with M14 melanoma, in the experiment on NCI-H226 lung, with OVCAR-3 ovarian and in the experiment with SK-MEL-2 melanoma was above 100 µM each time. Also, the TGI with SK-MEL-28 melanoma, in the experiment on SK-OV-3 ovarian, in the experiment on SNB-19 CNS and with SNB-75 CNS was above 100 µM each time.
Regarding `COc1ccc2cc1Oc1ccc(cc1)C(Sc1ccccc1)CCOC(=O)CC2` (stereo not given), the TGI with DU-145 prostate, in the experiment on IGROV1 ovarian, in the experiment on M14 melanoma, in the experiment with NCI-H226 lung, in the experiment on OVCAR-3 ovarian and in the experiment with SK-MEL-2 melanoma was above 100 µM throughout. In addition, the TGI in the experiment on SK-MEL-28 melanoma, in the experiment on SK-OV-3 ovarian, with SNB-19 CNS and in the experiment with SNB-75 CNS was above 100 µM each time.
With `N#Cc1c(SCc2ccccc2)nc(-c2ccccc2)[nH]c1=S`, the TGI in the experiment with DU-145 prostate was above 100 µM; with IGROV1 ovarian, 79.4 µM; in the experiment on M14 melanoma, 89.8 µM; with NCI-H226 lung, 70.3 µM; in the experiment on OVCAR-3 ovarian, 36.3 µM; in the experiment with SK-MEL-2 melanoma it was 32.4 µM. For the same compound, the TGI is 55 µM in the experiment with SK-MEL-28 melanoma, 60.1 µM in the experiment on SK-OV-3 ovarian, above 100 µM with SNB-19 CNS and 47.1 µM in the experiment on SNB-75 CNS.
Turning to `O=C1CSC(/C(=C\c2ccc(Cl)cc2)c2nc3ccccc3[nH]2)=N1`, the TGI came to 26.2 µM with DU-145 prostate; 22.4 µM in the experiment with IGROV1 ovarian; 40.3 µM in the experiment with M14 melanoma; 18.2 µM with NCI-H226 lung; 20.9 µM with OVCAR-3 ovarian; 34.5 µM with SK-MEL-2 melanoma. Besides, the TGI worked out at 32.6 µM with SK-MEL-28 melanoma, 24.1 µM in the experiment on SK-OV-3 ovarian, 33.9 µM in the experiment with SNB-19 CNS and 28.8 µM with SNB-75 CNS.
On to `CC(=O)N1CCc2c([nH]c3ccc(Br)cc23)C1c1ccccc1` (stereo not given), for which the concentration for total growth inhibition (TGI) in the experiment on DU-145 prostate, in the experiment on IGROV1 ovarian, in the experiment with M14 melanoma, with NCI-H226 lung, with OVCAR-3 ovarian and in the experiment on SK-MEL-2 melanoma was above 10 µM throughout. For the same compound, the TGI with SK-MEL-28 melanoma, in the experiment on SK-OV-3 ovarian, with SNB-19 CNS and with SNB-75 CNS was above 10 µM in each case.
`Cc1ccsc1/C=N/Nc1cc(C)c2cccc(C)c2n1`: the TGI with DU-145 prostate, with IGROV1 ovarian, in the experiment with M14 melanoma, in the experiment with NCI-H226 lung, in the experiment on OVCAR-3 ovarian and with SK-MEL-2 melanoma was above 100 µM each time. The TGI in the experiment on SK-MEL-28 melanoma, in the experiment with SK-OV-3 ovarian, in the experiment on SNB-19 CNS and in the experiment with SNB-75 CNS was above 100 µM throughout.
